Measurements published in patent US11656221B2, “Methods to identify modulators of actin-binding proteins” (Regents of the University of Minnesota, priority 2019, dated 2023).
Entries after “also recorded” stand apart in the source; their conditions may differ.

Legend:
[1] = biological target: T1, Lifeact-mCherry binding to F-actin (Oryctolagus cuniculus, UniProt P68135); experiment: F-actin and Lifeact-mCherry co-sedimentation assay; design: species or system New Zealand white rabbit (Oryctolagus cuniculus); conditions: 3 μM, 2 μM Lifeact-mCherry, 30 μM F-actin
T1 construct: Actin was purified from acetone powder derived from the psoas muscle; made in house; host or cells: actin from rabbit psoas muscle; Lifeact-mCherry from E. coli, pE-SUMOpro
Experimental: Actin was purified from acetone powder derived from the psoas muscle of New Zealand white rabbit (Oryctolagus cuniculus). Filamentous (F)-actin was stored for up to 3 days on ice before use in binding assays. Within an hour of the binding assay, the F-actin was clarified at 100,000×g at 4° C. for 10 min prior to setting up binding assays. The L253P β-III-spectrin ABD was expressed in E. coli BL21(DE3) (Novagen). The ABD was purified and the His-SUMO tag proteolytically removed, as previously described, except size-exclusion chromatography was not performed due to the high purity of the ABD protein. Lifeact-mCherry protein was similarly prepared. A Bradford assay was performed to determine clarified F-actin and ABD protein concentrations.
F-actin and ABD binding assays were performed as previously described. In brief, binding assays used 1 μM ABD protein, 1 μM F-actin and 1-50 μM compound (as indicated) or DMSO control for a total reaction volume of 60 μL in F-buffer containing 10 mM Tris, pH 7.5, 150 mM NaCl, 0.5 mM ATP, 2 mM MgCl2, and 1 mM DTT. Following 30 min incubation at room temperature (21° C.). F-actin was pelleted using centrifugation at 100,000×g at 25° C. for 30 min. Unbound ABD in the supernatant was measured following SDS-PAGE and Coomassie blue staining in accord. In addition, control co-sedimentations assays that lacked actin were performed to test if compounds cause ABD aggregation. F-actin and Lifeact-mCherry binding assays were undertaken with 2 μM Lifeact-mCherry, 30 μM F-actin and 1-50 μM compound (as indicated) or DMSO control for a total reaction volume of 80 μL in F-buffer. For a no-actin binding control, an assay sample with no F-actin was also set up. Binding reactions were allowed to reach equilibrium at room temperature (21° C.) for 30 min and then F-actin was pelleted by centrifugation at 100,000×g at 25° C. for 30 min. The amount of unbound Lifeact-mCherry was sampled by loading 7 μL of spin supernatant on a low volume black bottom 384-well plate (Greiner). Amount of mCherry was determined by acquiring fluorescence spectrum peak intensity at ˜600 nm using a spectral unmixing plate reader (Fluorescence Innovations, Inc) equipped with a 532 nm laser (Laserglow Technologies, Ontario, Canada) for excitation, 532 nm longpass filter for emission, and PMT for emission detection. The fraction of Lifeact-mCherry bound to F-actin was determined by subtracting from one the fraction of supernatant fluorescence intensity relative to the no-actin control sample, using the following equation:
[formula] • Where Fcontrol/DMSO is the peak mCherry fluorescence of assay samples containing compound or DMSO control, and Fno-actin is the peak mCherry fluorescence of assay samples that contained no F-actin. 2.9 Trypan Blue Cell Viability Assays

[2] = biological target: T2, GFP-ABD-L253P and mCherry (non-specific FRET) in HEK293-6E cells (Homo sapiens, UniProt O15020, L253P); experiment: Counter FRET assay, non-specific FRET (GFP-ABD-L253P plus mCherry); type: cell-based; conditions: swinholide A 3 μM
T2 construct: L252P β-III-spectrin (human) ABD residues 1-284; expressed in transfected cells; host or cells: HEK293-6E, pTT5 vector, transient
T2 sequence (O15020 1-284 L253P): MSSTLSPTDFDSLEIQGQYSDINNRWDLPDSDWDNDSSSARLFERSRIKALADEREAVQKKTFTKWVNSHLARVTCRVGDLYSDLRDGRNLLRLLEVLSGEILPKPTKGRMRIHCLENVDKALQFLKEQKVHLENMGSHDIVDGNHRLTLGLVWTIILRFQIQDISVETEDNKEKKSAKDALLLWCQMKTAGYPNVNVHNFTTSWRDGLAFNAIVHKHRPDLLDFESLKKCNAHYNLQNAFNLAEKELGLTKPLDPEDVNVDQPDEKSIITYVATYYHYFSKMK
Experimental: At 2×10^6 cells/mL, HEK293-6E cells were transfected with GFP-ABD (2.4 μg), Lifeact-mCherry (2.4-16.8 μg), mCherry (1.2-16.8 μg), and/or pTT5 (0.8-17.6 μg) using the 293fectin protocol (Thermo Fisher Scientific) with 20 μg total DNA. The cells were harvested 24 hours later by centrifugation at 100×g for 5 min, and then washed twice with PBS. Cell viability and concentration were determined using trypan blue assay and a Countess cell counter (Invitrogen).
Using a Multidrop Combi liquid dispenser (Thermo Fisher Scientific), 10^6 cells/mL were dispersed into 1536-well and 384-well plates as 5 or 50 μL aliquots, respectively. For control and tool compound plates, 100 nL of DMSO or potential tool compound was loaded using the Mantis (Formulatrix). […] Two to three hours after sample loading, fluorescence lifetime measurements were performed using high-throughput fluorescence plate-readers provided by Photonic Pharma LLC (MN, USA), including one detecting fluorescence lifetime and another detecting fluorescence spectra, as described previously.
To develop a biosensor that monitors the binding of mutant L253P β-III-spectrin to actin filaments in live cells, a fluorescence resonance energy transfer (FRET) approach was tested. […] To measure the non-specific component to our FRET readout, we concurrently tested expression of mCherry in place of Lifeact-mCherry. […]

actin = actin sedimentation assay; read-out: previously reported affinity value; cited from earlier work

**Q.** For `CO[C@H]1C[C@H](CC[C@H](C)[C@H](O)[C@H](C)[C@H]2OC(=O)/C=C/C(C)=C/C[C@H](O)C[C@@H]3C=CC[C@@H](C[C@H](OC)[C@@H](C)[C@@H](O)C[C@@H](O)[C@H](C)[C@@H]([C@@H](C)[C@@H](O)[C@@H](C)CC[C@H]4C[C@H](OC)C[C@H](C)O4)OC(=O)/C=C/C(C)=C/C[C@H](O)C[C@@H]4C=CC[C@@H](C[C@H](OC)[C@@H](C)[C@@H](O)C[C@@H](O)[C@@H]2C)O4)O3)O[C@@H](C)C1` [swinholide A], which “effect on Lifeact-mCherry binding with actin” value [1] is on record?
**A.** did reduce; also recorded: reduce Lifeact-mCherry binding with actin

**Q.** And the “effect on counter (non-specific) FRET” value [2]?
**A.** did not significantly alter

**Q.** And the Kd (actin)?
**A.** 50 nM
